From US12037354B2, “Cyclic pantetheine derivatives and uses thereof” (VectivBio Comet AG, priority 2018, dated 2024)

Experiments:
Type in all cases: cell-based, human
[1] = tested on: Keratinocytes co-cultured with dermal fibroblast (KF3CT system); assay: BioMAP KF3CT system, Example 834
Procedure: (§1) The BioMAP platform (BioMAP® Diversity PLUS Panel from Eurofins) is an in vitro phenotypic profiling technology that screened the compounds of the present disclosure (hereafter indicated as test agents) in human primary cell-based systems modelling complex tissue and disease states. The BioMAP assays were performed using the Eurofin's BioMAP Technology Platform as (see references 1 to 13 in the example 824 section) to model different diseases on primary cell-based model systems. These systems consisted of either single primary cell types or co-culture cells. Adherent cell types were cultured or co-cultured in 96 or 384-well plates until confluence followed by the addition of compounds prepared in DMSO at a final concentration of ≤0.1%. In each cell-based system, primary cells from heathy donors (2-6 donors) were pooled and treated with compounds at 1 and 10 μM dose 1 h prior to stimulation and remain in culture as indicated in
(§2) Example 825, Example 826, Example 827, Example 828, Example 829, Example 830, Example 831, Example 832, Example 833, Example 834, Example 835, Example 836 and Example 837. For on the BioMAP® Diversity PLUS® Panel, please see the following references, which are incorporate herein.
Following the general procedure as described in Example 824, Keratinocytes were co-cultured with dermal fibroblast (KF3CT system) and treated with […], TNFα, IFNγ and TGFβ for 24 h in the presence or absence of the compounds to model psoriasis, dermatitis and skin biology. Biomarkers read out were; MCP-1, ICAM-1, IP-10, IL-8, MIG, IL-1α, MMP-9, PAI-1, SRB, TIMP-2, uPA.

[2] = tested on: Dermal fibroblasts (HDF3CGF system); assay: BioMAP HDF3CGF system, Example 833; conditions: 1 uM
Procedure: as §1, §2
Following the general procedure as described in Example 824, Dermal fibroblasts (HDF3CGF system) were treated with IL-1β, TNFα and IFNγ, EGF, bFGF and PDGF-BB for 24 h in the presence or absence of the compounds to model fibrosis and chronic inflammation. Biomarkers read out were; MCP-1, VCAM-1, ICAM-1, Collagen-I, Collagen-III, IP-10, I-TAC, IL-8, MIG, EGFR, M-CSF, MMP-1, PAI-1, SRB, TIMP-1, TIMP-2 and proliferation was measured for 72 h.

[3] = tested on: Venular endothelial cells co-cultured with macrophages (Mphg system); assay: BioMAP Mphg system, Example 836
Procedure: as §1, §2
Following the general procedure as described in Example 824, Venular endothelial cells co-cultured with macrophages (Mphg system) and treated with TLR2 ligand for 24 h in the presence or absence of the compounds to mimic cardiovascular inflammation, restenosis and chronic inflammation. Biomarkers read out were; MCP-1, MIP-1α, VCAM-1, CD40, E-selectin, CD69, IL-8, IL-1α, M-CSF, sIL-10 and SRB.

[4] = tested on: Venular Endothelial cells (HUVEC) (4H system); assay: BioMAP 4H system, Example 826
Procedure: as §1, §2
Following the general procedure as described in Example 824, Venular Endothelial cells (HUVEC) (4H system) were treated with IL-4 and histamine for 24 h to model Th2 driven allergy and autoimmunity in the presence or absence of compounds. Biomarkers read out were; MCP-1, Eotaxin-3. VCAM-1, P-selectin, uPAR (CD87), SRB and VEGFRII.

[5] = tested on: Peripheral blood mononuclear cells co-cultured with B-cells (BT system); assay: BioMAP BT system, Example 829; conditions: BT system; 10 uM
Procedure: as §1, §2
Following the general procedure as described in Example 824, Peripheral blood mononuclear cells were co-cultured with B-cells (BT system) were treated with either α-IgM and TCR ligands for 72 h in the presence or absence of the compounds to model asthma, allergy, oncology and autoimmunity. Biomarkers read out were; B-cell proliferation, PBMC cytotoxicity, secreted IgG, sIL-17A, sIL-17F, sIL-2, sIL-6 and s-TNFα.

[6] = tested on: Coronary artery smooth muscle cells (CASM3C system); assay: BioMAP CASM3C system, Example 832
Procedure: as §1, §2
Following the general procedure as described in Example 824, Coronary artery smooth muscle cells (CASM3C system) were treated with IL-1β, TNFα and IFNγ for 24 h in the presence or absence of the compounds to model cardiovascular inflammation and restenosis. Biomarker reads out were; MCP-1, VCAM-1, Throbomodulin, Tissue factor, uPAR, IL-8, MIG, HLA-DR, IL-6, LDLR, M-CSF, PAI-1, Proliferation, SAA and SRB

[7] = tested on: Peripheral blood mononuclear cells co-cultured with venular endothelial cells (Sag system); assay: BioMAP Sag system, Example 828; conditions: Sag system, 1 uM
Procedure: as §1, §2
Following the general procedure as described in Example 824, Peripheral blood mononuclear cells were co-cultured with venular endothelial cells and treated with soluble antigen (T-cell ligands) (Sag system) in the presence or absence of compounds to model autoimmune and chronic inflammation. Biomarkers read out were; MCP-1, CD38, CD40, E-selectin, CD69, IL-8, MIG, PBMC cytotoxicity, Proliferation and SRB.

[8] = tested on: Venular Endothelial cells (HUVEC) (3C system); assay: BioMAP 3C system, Example 825
Procedure: as §1, with “In each cell-based system, primary cells from heathy donors (2-6 donors) were pooled and treated with compounds at 1 and 10 μM dose 1 h prior to stimulation and remain in culture as indicated in” left out
Following the general procedure as described in Example 824, Venular Endothelial cells (HUVEC) (3C system) were treated with IL-1β, TNFα, IFNγ for 24 h to model Th1 driven cardiovascular and chronic inflammation diseases in the presence or absence of the compounds. Biomarker read out were; Tissue Factor, ICAM-1, E-selectin, uPAR (CD87), IL-8, […], HLA-DR, proliferation and SRB (Sulfo-rhodamine i.e. staining for protein content).

[9] = tested on: Bronchial epithelial cells co-cultured with dermal fibroblast (BF4T system); assay: BioMAP BF4T system, Example 830; conditions: 10 uM
Procedure: as §1, §2
Following the general procedure as described in Example 824, Bronchial epithelial cells were co-cultured with dermal fibroblast (BF4T system) and were treated with TNFα and IL-4 for 24 h in the presence or absence of the compounds to model asthma, allergy, fibrosis, lung inflammation. Biomarkers read out were; MCP-1, Eotaxin-3, VCAM-1, ICAM-1, CD90, IL-8, IL-1α, keratin 8/18, MMP-1, MMP-3, MMP-9, PAI-1, SRB, tPA, uPA.

[10] = tested on: Peripheral blood mononuclear cells co-cultured with venular endothelial cells (HUVEC) (LPS system); assay: BioMAP LPS system, Example 827
Procedure: as §1, §2
Following the general procedure as described in Example 824, Peripheral blood mononuclear cells co-cultured with venular endothelial cells (HUVEC) (LPS system) were stimulated with LPS for 24 h in the presence or absence of compounds, to model cardiovascular disease and chronic inflammation. Biomarkers read out were; MCP-1, VCAM-1, Thrombomodulin, Tissue Factor, CD40, E-selectin, CD69, IL-8, IL-1α, M-CSF, sPGE2, SRB and TNFα.

[11] = tested on: Monocytes differentiated to M1 macrophages; assay: M1 differentiation assay (TNFα, IL6, IL10 ELISA, FACS), Example 807
Procedure: Monocytes were isolated by positive isolation with CD14+ microbeads (Miltenyi, 130-050-201). Monocytes were 99% viable and were 96% purity as analyzed by FACS and CD14+(BD, 563561). 100,000 monocytes along with compounds at the dose of 10 and 50 μM were allowed to differentiate to macrophages with 10 ng/ml GMCSF (R&D, 15-GM-050/CF) in RPMI complete media (Invitrogen, 22400089) with 15% FBS (Hyclone SV30087.03) and 1% Penicillin-Streptomycin (Gibco, 15140-122). On day 2 and 4 half the media was refreshed with fresh GM-CSF and compounds at 10 and 50 μM dose. On day 6 the macrophages were matured with GMCSF, IFNγ (R&D 285-IF-100/CF) and LPS (Sigma, L6143) in the presence of 10 μM and 50 μM of compounds. After 24 h, supernatant was collected for the measurement of TNFα (DKW, 1117202) IL6 (DKW, 1110602), IL10 (DKW, 1110003) by ELISA. Macrophages were detached gently on ice with EDTA (Invitrogen, 15575-038) and analyzed by FACS (BD LSR Fortessa, 853492). Cells were stained for live/dead dye, surface and intracellular markers with fixation/permeabilization solution (BD, 554714) and ALIVE/DEAD™ Fixable Near-IR Dead Cell Stain Kit (BD, L34976), mouse anti human CD86 APC (BD, 555660), mouse anti-human CD163 PE (BD, 556018), mouse anti-human CD68 FITC (BD, 562117) or isotype controls anti-mouse IgG1 κ PE (BD, 559320) and anti-mouse IgG1 κ APC (BD, Anti mouse IgG1 κ APC (BD, 55571). Mature M1 macrophages were defined as CD86+CD68+CD163− and increase in TNFα, IL6, and decrease in IL-10.

COC(=O)CCC(=O)CC(=O)SCCNC(=O)CCNC(=O)[C@@H]1OP(=O)(O)OCC1(C)C [Compound 6]
≥20%: % decrease in Thrombomodulin ([6]; 10 uM) | % increase in Proliferation (HUVEC) ([8]; 3C system, 10 uM) | % increase in Proliferation (HUVEC) ([8]; concentration tested 10 uM) | % decrease in sTNFα ([10]; LPS system, 1 uM) | % decrease in sTNFα ([10]; concentration tested 1 uM)
≥10%: % decrease in MCP-1 ([1]; 10 uM (Example 927)) | % decrease in MCP-1 ([1]; 10 uM (Example 928)) | % decrease in TIMP-1 [2] | % increase in 72 Hour Proliferation [2] | % decrease in α-SMA ([3]; procedure of Example 836, 1 uM) | % increase in MMP-1 ([3]; procedure of Example 836, 10 uM) | % decrease in MCP-1 ([4]; 4H system, 1 uM) | % decrease in VEGFRII ([4]; 4H system, 1 uM) | % decrease in MCP-1 ([4]; concentration tested 1 uM) | % decrease in VEGFRII ([4]; concentration tested 1 uM) | % decrease in sTNFα [5] | % decrease in HLA-DR ([6]; 1 uM) | % decrease in M-CSF ([6]; 1 uM) | % decrease in VCAM-1 ([6]; 1 uM) | % increase in MCP-1 [7] | % decrease in IL-8 ([8]; 3C system, 1 uM) | % decrease in IL-8 ([8]; procedure of Example 825, concentration tested 1 uM) | % increase in VCAM-1 [9] | % decrease in M-CSF ([10]; Example 988, concentration tested 1 uM) | % decrease in IL-8 ([10]; LPS system, 1 uM) | % decrease in M-CSF ([10]; LPS system, 1 uM) | % decrease in Tissue Factor ([10]; LPS system, 1 uM) | % decrease in Tissue Factor ([10]; concentration tested 1 uM) | % decrease in IL-8 ([10]; procedure of Example 827, concentration tested 1 uM)

CC(C)=CC(=O)SCCNC(=O)CCNC(=O)[C@@H]1OC(C)(C)OCC1(C)C [Compound 850, S-2-(3-{[(R)-2,2,5,5-Tetramethyl-1,3-dioxan-4-yl]carbonylamino}propionylamino)ethyl 3-methyl-2-butenethioate]
≥30%: % decrease in Macrophage IL-6 Secretion ([11]; 10 uM) | % decrease in Macrophage TNFα Secretion ([11]; 50 uM)

CC1(C)OC(=O)C(CC(=O)SCCNC(=O)CCNC(=O)[C@@H]2OC(C)(C)OCC2(C)C)O1 (stereo partly shown) [Compound 851]
≥30%: % Increase in IL-10 Secretion ([11]; 10 uM) | % decrease in Macrophage IL-6 Secretion ([11]; 10 uM) | % decrease in Macrophage TNFα Secretion ([11]; 10 uM)
